In patent US20130096067A1, “DROSOPHILA TUMOR STEM CELL MODEL AND USES THEREOF” (priority 2011, published 2013):
Where a name gives a salt, the structure may show the parent alone.

Test system: Raf-1^gof intestinal tumors
Test: Luciferase screen of FDA-approved (NCI) drugs in 96-well plates, flies with Raf-1^gof intestinal tumors; for Avg (3 + 6): test concentration or dose not given here; for Log2 (fold): test concentration or dose not given here
Assay type: in vivo, Drosophila
[1] = average of Day 3 and Day 6 fold
[2] = log2 of the Day 3 fold difference in luciferase relative to DMSO controls
[3] = luciferase activity relative to DMSO controls, single dose of drug for three days, 96-well plates
[4] = six-day protocol: single dose for three days, then another dose for three more days

Compound	Avg (3 + 6) [1]	Log2 (fold) [2]	Day 3 Fold [3]	Day 6 Fold [4]	Avg (3 + 6) (in vivo)	Day 3 Fold (in vivo)	Day 6 Fold (in vivo)	Log2 (fold) (in vivo)	Day 3 Fold (po, 72 h)	Log2 (fold) (po, 72 h)
C[C@]12CC[C@@H]3c4ccc(O)cc4C[C@@H](CCCCCCCCC[S+]([O-])CCCC(F)(F)C(F)(F)F)[C@H]3[C@@H]1CC[C@@H]2O (stereo partly shown) [Fulvestrant]	1.172 fold	−0.221	0.858 fold	1.486 fold	–	–	–	–	–	–
O=C(CCBr)N1CCN(C(=O)CCBr)CC1 [Pipobroman]	0.853 fold	−0.011	0.992 fold	0.714 fold	–	–	–	–	–	–
CN(C)/N=N/c1[nH]cnc1C(N)=O [Dacarbazine]	0.960 fold	−0.010	0.993 fold	0.927 fold	–	–	–	–	–	–
O=C(O)CCCc1ccc(N(CCCl)CCCl)cc1 [Chlorambucil]	1.022 fold	0.175	1.129 fold	0.915 fold	–	–	–	–	–	–
O=c1[nH]c(=O)n([C@H]2C[C@H](O)[C@@H](CO)O2)cc1F [Floxuridine]	0.149 fold	−2.204	0.217 fold	0.080 fold	–	–	–	–	–	–
Cn1nnc2c(C(N)=O)ncn2c1=O [Temozolomide]	1.138 fold	−0.032	0.978 fold	1.298 fold	–	–	–	–	–	–
Estramustine disodium phosphate	–	–	–	–	0.922 fold	0.971 fold	0.872 fold	−0.042	–	–
Nc1nc2nc[nH]c2c(=S)[nH]1 [Thioguanine]	1.392 fold	0.495	1.409 fold	1.375 fold	–	–	–	–	–	–
COc1cccc2c1C(=O)c1c(O)c3c(c(O)c1C2=O)C[C@@](O)(C(=O)CO)C[C@@H]3O[C@H]1C[C@H](N)[C@H](O)[C@H](C)O1 [Doxorubicin HCl]	1.084 fold	−0.090	0.939 fold	1.228 fold	–	–	–	–	–	–
N.N.O=C([O-])C1(C(=O)[O-])CCC1.[Pt+2] [Carboplatin]	1.159 fold	0.059	1.042 fold	1.276 fold	–	–	–	–	–	–
Cc1cn(-c2cc(NC(=O)c3ccc(C)c(Nc4nccc(-c5cccnc5)n4)c3)cc(C(F)(F)F)c2)cn1 [Nilotinib]	0.804 fold	−0.615	0.653 fold	0.956 fold	–	–	–	–	–	–
Nc1nc(Cl)nc2c1ncn2[C@@H]1O[C@H](CO)[C@@H](O)[C@@H]1F [Clofarabine]	0.868 fold	−0.164	0.893 fold	0.843 fold	–	–	–	–	–	–
CC1=C(/C=C/C(C)=C/C=C/C(C)=C/C(=O)O)C(C)(C)CCC1 [Tretinoin]	0.871 fold	−0.040	0.972 fold	0.769 fold	–	–	–	–	–	–
CC(C)(C#N)c1cc(Cn2cncn2)cc(C(C)(C)C#N)c1 [Anastrozole]	1.000 fold	−0.053	0.964 fold	1.036 fold	–	–	–	–	–	–
CNNCc1ccc(C(=O)NC(C)C)cc1 [Procarbazine]	1.119 fold	0.470	1.385 fold	0.854 fold	–	–	–	–	–	–
CC[C@@]1(O)C(=O)OCc2c1cc1n(c2=O)Cc2cc3c(CN(C)C)c(O)ccc3nc2-1 [Topotecan HCl]	0.233 fold	−1.600	0.330 fold	0.137 fold	–	–	–	–	–	–

Compound	Avg (3 + 6) [1]	Log2 (fold) [2]	Day 3 Fold [3]	Day 6 Fold [4]	Avg (3 + 6) (in vivo)	Day 3 Fold (in vivo)	Day 6 Fold (in vivo)	Log2 (fold) (in vivo)	Day 3 Fold (po, 72 h)	Log2 (fold) (po, 72 h)
C=C1C[C@@H]2[C@H](CC[C@]3(C)C(=O)CC[C@@H]23)[C@@]2(C)C=CC(=O)C=C12 [Exemestane]	0.739 fold	−0.246	0.843 fold	0.634 fold	–	–	–	–	–	–
Nc1ccn([C@@H]2O[C@H](CO)[C@@H](O)[C@@H]2O)c(=O)n1 [Cytarabine HCl]	1.112 fold	0.100	1.072 fold	1.153 fold	–	–	–	–	–	–
COc1c2occc2cc2ccc(=O)oc12 [Methoxsalen]	0.927 fold	−0.016	0.989 fold	0.866 fold	–	–	–	–	–	–
Nc1cccc2c1CN(C1CCC(=O)NC1=O)C2=O (stereo not shown) [Lenalidomide]	0.853 fold	−0.117	0.922 fold	0.784 fold	–	–	–	–	–	–
Nc1ncn([C@@H]2O[C@H](CO)[C@@H](O)[C@H]2O)c(=O)n1 [Azacitidine]	1.045 fold	0.157	1.115 fold	0.976 fold	–	–	–	–	–	–
C1CN1c1nc(N2CC2)nc(N2CC2)n1 [Triethylenemelamine (TEM), Triethylenemelamine]	–	–	–	–	0.301 fold	0.349 fold	0.253 fold	−1.519	–	–
C[C@@H](CN1CC(=O)NC(=O)C1)N1CC(=O)NC(=O)C1 [Dexrazoxone]	0.599 fold	−0.428	0.743 fold	0.454 fold	–	–	–	–	–	–
COc1nc(N)nc2c1ncn2[C@@H]1O[C@H](CO)[C@@H](O)[C@@H]1O [Nelarabine]	1.194 fold	0.166	1.122 fold	1.266 fold	–	–	–	–	–	–
O=P(O)(O)C(O)(Cn1ccnc1)P(=O)(O)O [Zolendronic acid]	0.999 fold	−0.115	0.923 fold	1.076 fold	–	–	–	–	–	–
CC(=O)O[C@]1(C(C)=O)CC[C@H]2[C@@H]3C=C(C)C4=CC(=O)CC[C@]4(C)[C@H]3CC[C@@]21C [Megestrol acetate]	1.219 fold	0.418	1.336 fold	1.101 fold	–	–	–	–	–	–
Cc1ccc(NC(=O)c2ccc(CN3CCN(C)CC3)cc2)cc1Nc1nccc(-c2cccnc2)n1 [Imatinib]	0.674 fold	−0.558	0.679 fold	0.670 fold	–	–	–	–	–	–
OC[C@H]1O[C@@H](n2cnc3c2NC=NC[C@H]3O)C[C@@H]1O [Pentostatin]	0.951 fold	–	–	–	–	–	–	–	1.232 fold	0.301
CCC1=C[C@@H]2CN(C1)Cc1c([nH]c3ccccc13)[C@@](C(=O)OC)(c1cc3c(cc1OC)N(C)[C@H]1[C@@](O)(C(=O)OC)[C@H](OC(C)=O)[C@]4(CC)C=CCN5CC[C@]31[C@@H]54)C2 [Vinorelbine tartrate]	0.761 fold	−0.190	0.877 fold	0.645 fold	–	–	–	–	–	–
O=P1(NCCCl)OCCCN1CCCl (stereo not shown) [Ifosfamide]	1.004 fold	−0.026	0.982 fold	1.026 fold	–	–	–	–	–	–
Clc1ccc(C(c2ccccc2Cl)C(Cl)Cl)cc1 (stereo not shown) [Mitotane]	–	–	–	–	0.882 fold	0.827 fold	0.938 fold	−0.274	–	–
Oc1ncc(N(CCCl)CCCl)c(O)n1 [Uracil mustard]	–	–	–	–	0.869 fold	0.966 fold	0.773 fold	−0.050	–	–
